From US8629301B2, “Process for the purification of benzphetamine hydrochloride” (Mallinckrodt LLC, priority 2004, dated 2014)

Assay: partition between organic layer (toluene) and aqueous layer at adjusted pH
Conditions: for logD hydrocarbon water: toluene/water

Row | SMILES | partition coefficient (ratio of equilibrium concentration in the organic layer to that in the aqueous layer) (pH 4) | partition coefficient (ratio of equilibrium concentration in the organic layer to that in the aqueous layer) (pH 8) | partition coefficient (ratio of equilibrium concentration in the organic layer to that in the aqueous layer) (pH 10) | logD hydrocarbon water (pH 6) | partition coefficient (ratio of equilibrium concentration in the organic layer to that in the aqueous layer) (pH 6) | logD hydrocarbon water (pH 10)
1 | C[C@@H](Cc1ccccc1)N(C)Cc1ccccc1 [Benzphetamine, d-N-methyl-N-benzyl-beta-phenylisopropylamine] | 0.600 | ∞ | ∞ | 1.87 |  | 
2 | CN[C@@H](C)Cc1ccccc1 [Methamphetamine, methamphetamine] | 0.015 | 0.124 |  |  | 0.000 | 0.527
